Reference: PMC5862592, “CDK8/19 inhibition induces premature G1/S transition and ATR-dependent cell death in prostate cancer cells” (Oncotarget, 2018)
Like-named read-outs stand apart in the source and are kept apart here.

What was measured:
Assay in all cases: biochemical
Set-up in all cases: KINOMEscan active site-directed competition binding assay (DiscoveRx), 456 kinases, per cent of control at 300 nM
Details in all cases: read-out: Percent of Control (%)
TNNI3K = TNNI3K (Homo sapiens, UniProt Q59H18)
Outline: (§1)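 Binding was measured with an active site-directed competition binding assay that quantifies compound–kinase interactions. Test compounds were screened at 300 nmol/L across a 456-kinase panel.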

[1] = target: T1, RSK4(Kin.Dom.1-N-terminal) (Homo sapiens, UniProt Q9UK32)
T1 construct: gene RPS6KA6; Kin.Dom.1-N-terminal
T1 sequence (Q9UK32 whole entry): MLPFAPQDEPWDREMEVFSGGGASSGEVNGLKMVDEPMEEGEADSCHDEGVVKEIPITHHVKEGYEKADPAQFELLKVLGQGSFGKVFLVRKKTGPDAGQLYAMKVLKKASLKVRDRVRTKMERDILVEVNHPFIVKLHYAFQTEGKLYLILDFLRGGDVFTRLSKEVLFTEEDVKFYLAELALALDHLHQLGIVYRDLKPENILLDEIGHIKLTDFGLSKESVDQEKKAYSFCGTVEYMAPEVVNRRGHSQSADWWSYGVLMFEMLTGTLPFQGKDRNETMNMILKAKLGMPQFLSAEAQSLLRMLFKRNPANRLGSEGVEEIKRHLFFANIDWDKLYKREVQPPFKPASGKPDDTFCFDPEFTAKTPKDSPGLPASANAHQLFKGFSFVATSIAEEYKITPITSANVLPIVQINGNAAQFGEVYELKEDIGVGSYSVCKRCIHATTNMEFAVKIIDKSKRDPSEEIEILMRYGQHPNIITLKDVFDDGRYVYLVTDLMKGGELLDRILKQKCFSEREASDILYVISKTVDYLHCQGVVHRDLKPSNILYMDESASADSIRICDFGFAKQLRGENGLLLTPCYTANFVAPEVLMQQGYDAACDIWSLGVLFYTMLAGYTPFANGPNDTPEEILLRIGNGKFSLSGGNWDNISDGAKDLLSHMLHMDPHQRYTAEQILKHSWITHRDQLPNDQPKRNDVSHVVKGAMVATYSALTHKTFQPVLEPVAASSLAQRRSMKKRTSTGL
Outline: as §1

[2] = target: EGFR(L747-S752del, P753S) (Homo sapiens, UniProt P00533, DEL747-752/P753S)
Outline: as §1

CDK9 = CDK9 (Homo sapiens, UniProt P50750)
Outline: as §1

[3] = target: EGFR(L747-E749del, A750P) (Homo sapiens, UniProt P00533, A750P/DEL747-749)
Outline: as §1

TBK1 = TBK1 (Homo sapiens, UniProt Q9UHD2)
Outline: as §1

PLK4 = PLK4 (Homo sapiens, UniProt O00444)
Outline: as §1

PIK3CA(H1047Y) = PIK3CA(H1047Y) (Homo sapiens, UniProt P42336, H1047Y)
PIK3CA(H1047Y), sequence (P42336 whole entry H1047Y): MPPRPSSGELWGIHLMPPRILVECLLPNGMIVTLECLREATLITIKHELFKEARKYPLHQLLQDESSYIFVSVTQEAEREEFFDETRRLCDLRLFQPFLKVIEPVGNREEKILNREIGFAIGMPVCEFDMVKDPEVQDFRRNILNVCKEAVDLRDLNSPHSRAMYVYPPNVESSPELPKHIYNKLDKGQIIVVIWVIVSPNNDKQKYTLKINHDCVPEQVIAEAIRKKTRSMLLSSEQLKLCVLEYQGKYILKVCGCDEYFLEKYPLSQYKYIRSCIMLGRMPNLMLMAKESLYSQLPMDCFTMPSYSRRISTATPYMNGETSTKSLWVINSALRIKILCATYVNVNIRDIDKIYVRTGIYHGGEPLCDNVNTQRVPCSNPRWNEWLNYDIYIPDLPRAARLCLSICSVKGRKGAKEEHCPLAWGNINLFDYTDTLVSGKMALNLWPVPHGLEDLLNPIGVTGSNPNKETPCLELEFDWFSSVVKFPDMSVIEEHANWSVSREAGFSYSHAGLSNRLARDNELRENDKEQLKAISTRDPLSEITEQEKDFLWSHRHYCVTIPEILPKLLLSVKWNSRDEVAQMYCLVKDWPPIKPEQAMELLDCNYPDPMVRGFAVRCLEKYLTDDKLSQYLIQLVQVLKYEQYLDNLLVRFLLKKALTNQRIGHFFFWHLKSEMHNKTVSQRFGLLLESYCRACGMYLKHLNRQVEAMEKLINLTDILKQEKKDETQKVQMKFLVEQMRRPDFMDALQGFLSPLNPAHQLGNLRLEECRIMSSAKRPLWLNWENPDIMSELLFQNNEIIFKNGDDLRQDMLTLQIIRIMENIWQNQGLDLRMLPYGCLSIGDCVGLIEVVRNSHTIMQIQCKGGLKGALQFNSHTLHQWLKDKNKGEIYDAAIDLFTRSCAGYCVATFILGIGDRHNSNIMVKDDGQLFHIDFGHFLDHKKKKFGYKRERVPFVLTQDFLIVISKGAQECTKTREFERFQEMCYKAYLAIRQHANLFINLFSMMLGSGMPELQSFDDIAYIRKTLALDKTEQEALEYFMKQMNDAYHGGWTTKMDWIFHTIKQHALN
Outline: as §1

OSR1 = target: T2, OSR1 (Homo sapiens, UniProt O95747)
T2 construct: gene OXSR1
Outline: as §1

PRKR = target: T3, PRKR (Homo sapiens, UniProt P19525)
T3 construct: gene EIF2AK2
Outline: as §1

CAMK1G = CAMK1G (Homo sapiens, UniProt Q96NX5)
Outline: as §1

[4] = target: T4, RSK2(Kin.Dom.2-C-terminal) (Homo sapiens, UniProt P51812)
T4 construct: gene RPS6KA3; Kin.Dom.2-C-terminal
Outline: as §1

RIPK1 = RIPK1 (Homo sapiens, UniProt Q13546)
RIPK1, sequence (Q13546 whole entry): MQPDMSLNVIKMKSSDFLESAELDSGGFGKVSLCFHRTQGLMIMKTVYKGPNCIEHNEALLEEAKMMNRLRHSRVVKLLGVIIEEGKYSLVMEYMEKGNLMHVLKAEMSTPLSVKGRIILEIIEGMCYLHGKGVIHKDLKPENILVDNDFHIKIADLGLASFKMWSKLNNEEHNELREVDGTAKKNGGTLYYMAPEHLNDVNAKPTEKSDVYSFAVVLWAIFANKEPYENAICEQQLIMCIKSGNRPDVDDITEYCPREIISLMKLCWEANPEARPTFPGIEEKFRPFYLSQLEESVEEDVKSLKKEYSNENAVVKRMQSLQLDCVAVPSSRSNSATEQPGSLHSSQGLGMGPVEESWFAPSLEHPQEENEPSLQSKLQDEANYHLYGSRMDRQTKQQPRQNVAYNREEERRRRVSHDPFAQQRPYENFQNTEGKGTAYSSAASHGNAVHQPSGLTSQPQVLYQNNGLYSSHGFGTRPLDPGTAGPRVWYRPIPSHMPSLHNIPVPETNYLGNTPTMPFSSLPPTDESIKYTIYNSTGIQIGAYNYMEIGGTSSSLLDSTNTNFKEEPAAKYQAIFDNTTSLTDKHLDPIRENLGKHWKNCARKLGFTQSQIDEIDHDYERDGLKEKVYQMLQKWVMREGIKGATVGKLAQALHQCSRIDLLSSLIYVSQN
Outline: as §1

MRCKB = target: T5, MRCKB (Homo sapiens, UniProt Q9Y5S2)
T5 construct: gene CDC42BPB
Outline: as §1

MAP3K15 = MAP3K15 (Homo sapiens, UniProt Q6ZN16)
MAP3K15, sequence (Q6ZN16 whole entry): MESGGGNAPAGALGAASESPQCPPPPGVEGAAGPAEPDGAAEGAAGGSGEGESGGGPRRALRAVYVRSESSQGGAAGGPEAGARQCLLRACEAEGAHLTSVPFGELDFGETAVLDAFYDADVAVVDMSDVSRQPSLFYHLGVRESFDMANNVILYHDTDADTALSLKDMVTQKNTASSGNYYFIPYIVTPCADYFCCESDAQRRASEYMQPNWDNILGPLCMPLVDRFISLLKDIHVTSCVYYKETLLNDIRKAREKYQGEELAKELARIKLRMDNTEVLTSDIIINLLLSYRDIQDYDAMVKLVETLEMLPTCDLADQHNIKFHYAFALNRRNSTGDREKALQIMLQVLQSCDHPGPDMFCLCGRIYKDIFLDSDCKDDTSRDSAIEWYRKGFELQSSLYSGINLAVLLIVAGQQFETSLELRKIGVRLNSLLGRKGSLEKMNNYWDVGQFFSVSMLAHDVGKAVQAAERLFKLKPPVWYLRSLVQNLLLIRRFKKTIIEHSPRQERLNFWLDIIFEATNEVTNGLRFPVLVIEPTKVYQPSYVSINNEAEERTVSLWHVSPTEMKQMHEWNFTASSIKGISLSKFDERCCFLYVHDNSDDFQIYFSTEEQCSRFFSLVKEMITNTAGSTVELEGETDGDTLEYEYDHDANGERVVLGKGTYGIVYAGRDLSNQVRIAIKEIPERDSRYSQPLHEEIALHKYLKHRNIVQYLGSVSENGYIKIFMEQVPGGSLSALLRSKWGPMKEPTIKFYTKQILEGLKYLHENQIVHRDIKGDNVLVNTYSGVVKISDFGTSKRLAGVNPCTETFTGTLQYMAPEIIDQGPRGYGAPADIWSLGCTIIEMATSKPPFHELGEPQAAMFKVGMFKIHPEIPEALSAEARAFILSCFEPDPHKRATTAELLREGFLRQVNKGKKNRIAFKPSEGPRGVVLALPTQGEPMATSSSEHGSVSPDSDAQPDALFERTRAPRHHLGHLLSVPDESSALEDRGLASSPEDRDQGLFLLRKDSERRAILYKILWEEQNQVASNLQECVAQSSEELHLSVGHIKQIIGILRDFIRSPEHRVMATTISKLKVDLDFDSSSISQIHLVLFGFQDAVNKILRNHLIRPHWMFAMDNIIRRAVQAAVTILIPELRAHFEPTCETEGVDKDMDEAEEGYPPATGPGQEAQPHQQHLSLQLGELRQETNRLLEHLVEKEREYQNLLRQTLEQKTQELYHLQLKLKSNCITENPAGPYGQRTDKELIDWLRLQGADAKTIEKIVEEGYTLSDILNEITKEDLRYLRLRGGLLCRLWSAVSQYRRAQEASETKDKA
Outline: as §1

ICK = target: T6, ICK (Homo sapiens, UniProt Q9UPZ9)
T6 construct: gene CILK1
T6 sequence (Q9UPZ9 whole entry): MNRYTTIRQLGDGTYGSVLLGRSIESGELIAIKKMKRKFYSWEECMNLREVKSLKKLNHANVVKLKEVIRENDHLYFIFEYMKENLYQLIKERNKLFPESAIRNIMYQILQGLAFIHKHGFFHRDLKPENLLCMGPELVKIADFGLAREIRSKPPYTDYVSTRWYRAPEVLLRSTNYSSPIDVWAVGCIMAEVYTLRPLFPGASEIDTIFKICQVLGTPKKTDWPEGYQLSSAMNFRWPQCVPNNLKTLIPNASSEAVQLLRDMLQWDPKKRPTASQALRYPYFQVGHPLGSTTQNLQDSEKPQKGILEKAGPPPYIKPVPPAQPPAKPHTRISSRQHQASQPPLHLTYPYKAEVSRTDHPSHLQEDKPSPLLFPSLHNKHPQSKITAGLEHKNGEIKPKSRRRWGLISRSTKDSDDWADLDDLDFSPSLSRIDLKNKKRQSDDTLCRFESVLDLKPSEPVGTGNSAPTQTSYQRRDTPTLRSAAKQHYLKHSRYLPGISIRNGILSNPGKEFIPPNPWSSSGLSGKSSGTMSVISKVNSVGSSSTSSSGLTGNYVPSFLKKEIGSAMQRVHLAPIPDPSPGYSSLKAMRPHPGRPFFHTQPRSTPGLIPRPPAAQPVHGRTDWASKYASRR
Outline: as §1

CDKL1 = CDKL1 (Homo sapiens, UniProt Q00532)
Outline: as §1

YANK2 = target: T7, YANK2 (Homo sapiens, UniProt Q9NY57)
T7 construct: gene STK32B
Outline: as §1

SgK110 = target: T8, SgK110 (Homo sapiens, UniProt P0C264)
T8 construct: gene SBK3
Outline: as §1

MKK7 = target: T9, MKK7 (Homo sapiens, UniProt O14733)
T9 construct: gene MAP2K7
T9 sequence (O14733 whole entry): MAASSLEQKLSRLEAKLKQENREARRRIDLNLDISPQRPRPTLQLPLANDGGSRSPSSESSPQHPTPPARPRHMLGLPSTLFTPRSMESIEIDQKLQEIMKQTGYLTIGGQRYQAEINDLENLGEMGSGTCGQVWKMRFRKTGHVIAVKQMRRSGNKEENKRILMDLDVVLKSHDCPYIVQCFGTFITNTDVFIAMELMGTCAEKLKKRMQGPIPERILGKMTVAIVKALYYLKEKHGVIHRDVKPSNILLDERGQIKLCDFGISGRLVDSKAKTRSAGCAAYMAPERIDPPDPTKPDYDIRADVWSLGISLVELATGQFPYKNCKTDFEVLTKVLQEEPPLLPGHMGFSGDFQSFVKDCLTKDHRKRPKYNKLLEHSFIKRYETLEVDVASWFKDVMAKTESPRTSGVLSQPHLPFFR
Outline: as §1

PKNB(M.tuberculosis) = PKNB(M.tuberculosis) (Mycobacterium tuberculosis, UniProt P9WI81)
Outline: as §1

Question: With `O=C(/C=C/c1cnccc1-c1ccc(F)cc1)Nc1ccc(CCc2nnco2)cc1` [T-418, (2E)-3-(4-(4-fluorophenyl)pyridin-3-yl)-N-(4-(2-(1,3,4-oxadiazol-2-yl)ethyl)phenyl)acrylamide] as the compound, how does the remaining binding at 0.3 µM (TNNI3K; sheet T-418) read?
Answer: The remaining binding at 0.3 µM was 100%.

Question: What about the remaining binding at 0.3 µM ([1]; sheet T-418) of the same compound?
Answer: Its remaining binding at 0.3 µM is 100%.

Question: What about the remaining binding at 0.3 µM ([2]; sheet T-418) of the same compound?
Answer: The remaining binding at 0.3 µM was 87%.

Question: What about the remaining binding at 0.3 µM (CDK9; sheet T-418) of the same compound?
Answer: The remaining binding at 0.3 µM was 83%.

Question: What about the remaining binding at 0.3 µM ([3]; sheet T-418) of the same compound?
Answer: Its remaining binding at 0.3 µM is 58%.

Question: And the remaining binding at 0.3 µM (TBK1; sheet T-418)?
Answer: The remaining binding at 0.3 µM was 75%.

Question: What about the remaining binding at 0.3 µM (PLK4; sheet T-418) of the same compound?
Answer: The remaining binding at 0.3 µM was 78%.

Question: What about the remaining binding at 0.3 µM (PIK3CA(H1047Y); sheet T-418) of the same compound?
Answer: The remaining binding at 0.3 µM was 73%.

Question: And the remaining binding at 0.3 µM (OSR1; sheet T-418)?
Answer: Its remaining binding at 0.3 µM is 53%.

Question: What about the remaining binding at 0.3 µM (PRKR; sheet T-418) of the same compound?
Answer: The remaining binding at 0.3 µM was 100%.

Question: What about the remaining binding at 0.3 µM (CAMK1G; sheet T-418) of the same compound?
Answer: The remaining binding at 0.3 µM was 100%.

Question: And the remaining binding at 0.3 µM ([4]; sheet T-418)?
Answer: The remaining binding at 0.3 µM was 100%.

Question: And the remaining binding at 0.3 µM (RIPK1; sheet T-418)?
Answer: The remaining binding at 0.3 µM was 83%.

Question: What about the remaining binding at 0.3 µM (MRCKB; sheet T-418) of the same compound?
Answer: The remaining binding at 0.3 µM was 100%.

Question: What about the remaining binding at 0.3 µM (MAP3K15; sheet T-418) of the same compound?
Answer: Its remaining binding at 0.3 µM is 100%.

Question: What about the remaining binding at 0.3 µM (ICK; sheet T-418) of the same compound?
Answer: The remaining binding at 0.3 µM was 100%.

Question: What about the remaining binding at 0.3 µM (CDKL1; sheet T-418) of the same compound?
Answer: The remaining binding at 0.3 µM was 88%.

Question: What about the remaining binding at 0.3 µM (YANK2; sheet T-418) of the same compound?
Answer: Its remaining binding at 0.3 µM is 78%.

Question: What about the remaining binding at 0.3 µM (SgK110; sheet T-418) of the same compound?
Answer: The remaining binding at 0.3 µM was 73%.

Question: What about the remaining binding at 0.3 µM (MKK7; sheet T-418) of the same compound?
Answer: The remaining binding at 0.3 µM was 100%.

Question: And the remaining binding at 0.3 µM (PKNB(M.tuberculosis); sheet T-418)?
Answer: Its remaining binding at 0.3 µM is 84%.

Question: Which remaining binding at 0.3 µM (TNNI3K) does the source give for `Cc1ncccc1Oc1sc(C(N)=O)c2c1-c1c(cnn1C)CC2` [T-474, 1-methyl-8-((2-methylpyridin-3-yl)oxy)-4,5-dihydro-1H-thieno[3,4-g]indazole-6-carboxamide] here?
Answer: The remaining binding at 0.3 µM was 95%.

Question: What about the remaining binding at 0.3 µM [1] of the same compound?
Answer: The remaining binding at 0.3 µM was 100%.

Question: What about the remaining binding at 0.3 µM [2] of the same compound?
Answer: Its remaining binding at 0.3 µM is 61%.

Question: What about the remaining binding at 0.3 µM (CDK9) of the same compound?
Answer: The remaining binding at 0.3 µM was 80%.

Question: And the remaining binding at 0.3 µM [3]?
Answer: Its remaining binding at 0.3 µM is 68%.

Question: And the remaining binding at 0.3 µM (TBK1)?
Answer: Its remaining binding at 0.3 µM is 67%.

Question: What about the remaining binding at 0.3 µM (PLK4) of the same compound?
Answer: The remaining binding at 0.3 µM was 86%.

Question: What about the remaining binding at 0.3 µM (PIK3CA(H1047Y)) of the same compound?
Answer: The remaining binding at 0.3 µM was 54%.

Question: What about the remaining binding at 0.3 µM (OSR1) of the same compound?
Answer: The remaining binding at 0.3 µM was 60%.

Question: What about the remaining binding at 0.3 µM (PRKR) of the same compound?
Answer: Its remaining binding at 0.3 µM is 100%.

Question: And the remaining binding at 0.3 µM (CAMK1G)?
Answer: Its remaining binding at 0.3 µM is 100%.

Question: What about the remaining binding at 0.3 µM [4] of the same compound?
Answer: Its remaining binding at 0.3 µM is 100%.

Question: And the remaining binding at 0.3 µM (RIPK1)?
Answer: The remaining binding at 0.3 µM was 95%.

Question: And the remaining binding at 0.3 µM (MRCKB)?
Answer: Its remaining binding at 0.3 µM is 100%.

Question: And the remaining binding at 0.3 µM (MAP3K15)?
Answer: Its remaining binding at 0.3 µM is 100%.

Question: What about the remaining binding at 0.3 µM (ICK) of the same compound?
Answer: Its remaining binding at 0.3 µM is 100%.

Question: And the remaining binding at 0.3 µM (CDKL1)?
Answer: Its remaining binding at 0.3 µM is 76%.

Question: What about the remaining binding at 0.3 µM (YANK2) of the same compound?
Answer: The remaining binding at 0.3 µM was 100%.

Question: What about the remaining binding at 0.3 µM (SgK110) of the same compound?
Answer: Its remaining binding at 0.3 µM is 57%.

Question: And the remaining binding at 0.3 µM (MKK7)?
Answer: The remaining binding at 0.3 µM was 100%.

Question: And the remaining binding at 0.3 µM (PKNB(M.tuberculosis))?
Answer: Its remaining binding at 0.3 µM is 75%.
